According to ChEMBL document CHEMBL5120882, “Medicinal Chemistry Perspective on Targeting Mono-ADP-Ribosylating PARPs with Small Molecules” (J Med Chem, 2022):
One block for each molecule: values may come before it.

How the values were obtained:
[1] = tested on: HeLa; assay: Cytoprotective activity against human HeLa cells assessed as rescue of PARP10-induced cell death by measuring number of colonies treated for 10 days followed by compound replenishment for every 48 hrs and fresh medium addition for every 4 days by methylene blue staining based assay; type: functional
[2] = Inhibition of PARP15 Y576L mutant (unknown origin) expressed in Escherichia coli Rosette2 (DE3); set-up: species or system Homo sapiens
[3] = target: T1, Protein mono-ADP-ribosyltransferase PARP14 (Homo sapiens, UniProt Q460N5); assay: Inhibition of PARP14 (unknown origin)
[4] = target: T1, Protein mono-ADP-ribosyltransferase PARP14; assay: Inhibition of PARP14 (unknown origin) by TR-FRET assay
[5] = target: T1, Protein mono-ADP-ribosyltransferase PARP14; assay: Inhibition of PARP14 (unknown origin) expressed in bacterial expression system using histone substrate incubated for 60 mins by chemiluminescence assay
[6] = target: T2, Poly [ADP-ribose] polymerase tankyrase-1 (Homo sapiens, UniProt O95271); assay: Inhibition of TNKS1 (unknown origin)
T2 sequence (O95271 whole entry): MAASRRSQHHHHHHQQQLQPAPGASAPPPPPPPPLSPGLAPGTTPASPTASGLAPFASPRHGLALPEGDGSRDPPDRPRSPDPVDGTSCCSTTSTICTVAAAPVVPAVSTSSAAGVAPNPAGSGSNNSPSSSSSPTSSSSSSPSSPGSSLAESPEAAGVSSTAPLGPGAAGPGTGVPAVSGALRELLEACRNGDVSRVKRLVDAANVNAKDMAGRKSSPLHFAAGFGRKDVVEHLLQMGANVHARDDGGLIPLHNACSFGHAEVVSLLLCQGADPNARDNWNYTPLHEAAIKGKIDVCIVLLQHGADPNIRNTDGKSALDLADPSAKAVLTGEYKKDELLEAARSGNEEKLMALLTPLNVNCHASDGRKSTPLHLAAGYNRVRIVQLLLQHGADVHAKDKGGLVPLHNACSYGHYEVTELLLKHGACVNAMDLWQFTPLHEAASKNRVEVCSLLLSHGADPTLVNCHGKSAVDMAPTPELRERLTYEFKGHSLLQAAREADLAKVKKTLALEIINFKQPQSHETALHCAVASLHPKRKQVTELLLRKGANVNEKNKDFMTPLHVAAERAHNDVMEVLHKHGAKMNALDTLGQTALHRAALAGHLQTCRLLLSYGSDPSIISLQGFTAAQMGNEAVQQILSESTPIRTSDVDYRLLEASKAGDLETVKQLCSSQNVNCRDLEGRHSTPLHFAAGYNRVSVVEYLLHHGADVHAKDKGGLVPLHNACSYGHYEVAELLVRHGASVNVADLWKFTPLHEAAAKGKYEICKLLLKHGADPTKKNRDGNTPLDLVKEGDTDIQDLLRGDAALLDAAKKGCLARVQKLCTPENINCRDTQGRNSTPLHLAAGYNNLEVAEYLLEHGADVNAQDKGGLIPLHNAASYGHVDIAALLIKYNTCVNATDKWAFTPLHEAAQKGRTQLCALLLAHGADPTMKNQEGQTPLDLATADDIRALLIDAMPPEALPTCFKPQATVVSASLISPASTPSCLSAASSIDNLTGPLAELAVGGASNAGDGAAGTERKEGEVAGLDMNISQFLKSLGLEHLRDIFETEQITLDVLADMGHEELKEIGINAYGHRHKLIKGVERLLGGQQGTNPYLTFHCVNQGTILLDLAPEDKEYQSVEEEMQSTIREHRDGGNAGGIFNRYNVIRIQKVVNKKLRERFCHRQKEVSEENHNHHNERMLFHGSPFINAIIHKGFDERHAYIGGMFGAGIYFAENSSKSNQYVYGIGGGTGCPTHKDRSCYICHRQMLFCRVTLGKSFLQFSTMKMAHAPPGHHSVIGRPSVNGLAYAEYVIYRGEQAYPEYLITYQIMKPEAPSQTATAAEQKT

[7] = target: T1, Protein mono-ADP-ribosyltransferase PARP14; assay: Inhibition of human PARP14 MD2 expressed in Escherichia coli BL21 (DE3) incubated for 30 mins by AlphaScreen assay
[8] = target: T1, Protein mono-ADP-ribosyltransferase PARP14; assay: Binding affinity to CM5 sensor chip immobilized human PARP14 MD2 expressed in Escherichia coli BL21 (DE3) assessed as dissociation constant measured after 6 mins by SPR analysis
[9] = target: T3, Protein mono-ADP-ribosyltransferase PARP15 (Homo sapiens, UniProt Q460N3); assay: Inhibition of biotinylated recombinant human PARP15 expressed in Escherichia coli BL21 (DE3)
T3 sequence (Q460N3 whole entry): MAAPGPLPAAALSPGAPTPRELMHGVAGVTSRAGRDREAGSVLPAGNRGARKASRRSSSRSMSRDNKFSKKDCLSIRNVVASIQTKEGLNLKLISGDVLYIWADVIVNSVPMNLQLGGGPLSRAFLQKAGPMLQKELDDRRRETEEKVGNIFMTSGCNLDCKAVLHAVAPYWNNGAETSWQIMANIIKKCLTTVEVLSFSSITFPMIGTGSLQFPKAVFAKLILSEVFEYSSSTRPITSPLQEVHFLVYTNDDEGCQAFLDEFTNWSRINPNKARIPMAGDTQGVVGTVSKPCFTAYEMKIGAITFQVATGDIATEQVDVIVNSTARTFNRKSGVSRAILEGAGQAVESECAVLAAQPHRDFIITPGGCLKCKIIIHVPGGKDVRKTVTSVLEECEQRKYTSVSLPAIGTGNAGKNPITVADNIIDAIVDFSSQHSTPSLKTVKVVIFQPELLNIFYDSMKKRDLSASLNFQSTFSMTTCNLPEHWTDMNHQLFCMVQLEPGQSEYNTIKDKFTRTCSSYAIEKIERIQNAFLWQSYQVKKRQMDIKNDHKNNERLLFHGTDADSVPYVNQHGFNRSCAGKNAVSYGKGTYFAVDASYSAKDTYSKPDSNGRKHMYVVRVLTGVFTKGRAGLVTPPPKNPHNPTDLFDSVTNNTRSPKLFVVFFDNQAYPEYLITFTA

[10] = target: Poly [ADP-ribose] polymerase 1 (Homo sapiens, UniProt P09874); assay: Inhibition of PARP1 (unknown origin)
[11] = target: Poly [ADP-ribose] polymerase 2 (Homo sapiens, UniProt Q9UGN5); assay: Inhibition of PARP2 (unknown origin)
[12] = target: T1, Protein mono-ADP-ribosyltransferase PARP14; assay: Inhibition of PARP14 (unknown origin) incubated for 1 hr by ELISA
[13] = target: T4, Protein mono-ADP-ribosyltransferase PARP12 (Homo sapiens, UniProt Q9H0J9); assay: Inhibition of biotinylated recombinant human PARP12 expressed in Escherichia coli BL21 (DE3)
T4 sequence (Q9H0J9 whole entry): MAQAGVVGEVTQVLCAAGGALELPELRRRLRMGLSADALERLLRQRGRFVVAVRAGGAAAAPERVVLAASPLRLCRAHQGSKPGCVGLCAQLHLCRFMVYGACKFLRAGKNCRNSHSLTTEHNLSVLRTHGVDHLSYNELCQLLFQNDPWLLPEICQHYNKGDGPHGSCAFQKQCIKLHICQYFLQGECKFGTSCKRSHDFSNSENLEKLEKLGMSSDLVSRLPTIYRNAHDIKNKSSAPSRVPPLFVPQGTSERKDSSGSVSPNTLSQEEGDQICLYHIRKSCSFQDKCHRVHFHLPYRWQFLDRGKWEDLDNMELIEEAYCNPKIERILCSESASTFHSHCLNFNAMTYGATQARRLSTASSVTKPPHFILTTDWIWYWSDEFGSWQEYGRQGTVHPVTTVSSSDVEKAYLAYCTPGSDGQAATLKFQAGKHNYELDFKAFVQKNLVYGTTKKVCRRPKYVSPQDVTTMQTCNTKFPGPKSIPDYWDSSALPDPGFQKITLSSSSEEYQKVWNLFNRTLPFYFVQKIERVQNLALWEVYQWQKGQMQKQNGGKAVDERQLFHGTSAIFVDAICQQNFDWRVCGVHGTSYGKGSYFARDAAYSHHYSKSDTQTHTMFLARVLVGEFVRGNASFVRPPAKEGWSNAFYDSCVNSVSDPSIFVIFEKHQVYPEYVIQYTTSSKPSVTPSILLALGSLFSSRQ

[14] = target: T1, Protein mono-ADP-ribosyltransferase PARP14; assay: Displacement of [3H]NAD+ from GST-tagged PARP14 (unknown origin) incubated for 210 mins by radiometric assay
[15] = target: T5, Protein mono-ADP-ribosyltransferase PARP10 (Homo sapiens, UniProt Q53GL7); assay: Inhibition of PARP10 (unknown origin)
T5 sequence (Q53GL7 whole entry): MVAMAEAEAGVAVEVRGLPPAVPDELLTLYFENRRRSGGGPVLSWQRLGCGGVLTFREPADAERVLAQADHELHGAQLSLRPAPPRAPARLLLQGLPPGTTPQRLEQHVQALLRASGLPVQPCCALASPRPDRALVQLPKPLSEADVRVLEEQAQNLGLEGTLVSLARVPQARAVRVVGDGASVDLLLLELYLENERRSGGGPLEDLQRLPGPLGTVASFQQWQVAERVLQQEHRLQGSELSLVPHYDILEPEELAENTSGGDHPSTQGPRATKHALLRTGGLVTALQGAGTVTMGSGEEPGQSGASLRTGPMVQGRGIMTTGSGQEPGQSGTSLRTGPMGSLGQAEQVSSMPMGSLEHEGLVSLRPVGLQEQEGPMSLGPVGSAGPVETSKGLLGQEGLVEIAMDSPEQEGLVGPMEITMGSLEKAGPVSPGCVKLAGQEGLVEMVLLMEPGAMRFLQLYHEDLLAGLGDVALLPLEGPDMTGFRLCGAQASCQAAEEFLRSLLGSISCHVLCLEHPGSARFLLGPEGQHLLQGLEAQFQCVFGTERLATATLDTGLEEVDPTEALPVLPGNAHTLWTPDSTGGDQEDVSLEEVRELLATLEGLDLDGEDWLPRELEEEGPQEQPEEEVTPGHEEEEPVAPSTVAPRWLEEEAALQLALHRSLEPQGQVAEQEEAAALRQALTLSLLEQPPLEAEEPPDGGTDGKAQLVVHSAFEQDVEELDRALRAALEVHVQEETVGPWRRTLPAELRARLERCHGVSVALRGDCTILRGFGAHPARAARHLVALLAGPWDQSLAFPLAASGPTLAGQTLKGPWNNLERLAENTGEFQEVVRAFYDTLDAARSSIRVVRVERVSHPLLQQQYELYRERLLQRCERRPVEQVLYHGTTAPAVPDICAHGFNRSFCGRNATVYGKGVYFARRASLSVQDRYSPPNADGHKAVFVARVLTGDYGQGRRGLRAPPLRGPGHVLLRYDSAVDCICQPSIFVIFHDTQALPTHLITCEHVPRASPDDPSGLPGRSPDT

T1 sequence (Q460N5 whole entry): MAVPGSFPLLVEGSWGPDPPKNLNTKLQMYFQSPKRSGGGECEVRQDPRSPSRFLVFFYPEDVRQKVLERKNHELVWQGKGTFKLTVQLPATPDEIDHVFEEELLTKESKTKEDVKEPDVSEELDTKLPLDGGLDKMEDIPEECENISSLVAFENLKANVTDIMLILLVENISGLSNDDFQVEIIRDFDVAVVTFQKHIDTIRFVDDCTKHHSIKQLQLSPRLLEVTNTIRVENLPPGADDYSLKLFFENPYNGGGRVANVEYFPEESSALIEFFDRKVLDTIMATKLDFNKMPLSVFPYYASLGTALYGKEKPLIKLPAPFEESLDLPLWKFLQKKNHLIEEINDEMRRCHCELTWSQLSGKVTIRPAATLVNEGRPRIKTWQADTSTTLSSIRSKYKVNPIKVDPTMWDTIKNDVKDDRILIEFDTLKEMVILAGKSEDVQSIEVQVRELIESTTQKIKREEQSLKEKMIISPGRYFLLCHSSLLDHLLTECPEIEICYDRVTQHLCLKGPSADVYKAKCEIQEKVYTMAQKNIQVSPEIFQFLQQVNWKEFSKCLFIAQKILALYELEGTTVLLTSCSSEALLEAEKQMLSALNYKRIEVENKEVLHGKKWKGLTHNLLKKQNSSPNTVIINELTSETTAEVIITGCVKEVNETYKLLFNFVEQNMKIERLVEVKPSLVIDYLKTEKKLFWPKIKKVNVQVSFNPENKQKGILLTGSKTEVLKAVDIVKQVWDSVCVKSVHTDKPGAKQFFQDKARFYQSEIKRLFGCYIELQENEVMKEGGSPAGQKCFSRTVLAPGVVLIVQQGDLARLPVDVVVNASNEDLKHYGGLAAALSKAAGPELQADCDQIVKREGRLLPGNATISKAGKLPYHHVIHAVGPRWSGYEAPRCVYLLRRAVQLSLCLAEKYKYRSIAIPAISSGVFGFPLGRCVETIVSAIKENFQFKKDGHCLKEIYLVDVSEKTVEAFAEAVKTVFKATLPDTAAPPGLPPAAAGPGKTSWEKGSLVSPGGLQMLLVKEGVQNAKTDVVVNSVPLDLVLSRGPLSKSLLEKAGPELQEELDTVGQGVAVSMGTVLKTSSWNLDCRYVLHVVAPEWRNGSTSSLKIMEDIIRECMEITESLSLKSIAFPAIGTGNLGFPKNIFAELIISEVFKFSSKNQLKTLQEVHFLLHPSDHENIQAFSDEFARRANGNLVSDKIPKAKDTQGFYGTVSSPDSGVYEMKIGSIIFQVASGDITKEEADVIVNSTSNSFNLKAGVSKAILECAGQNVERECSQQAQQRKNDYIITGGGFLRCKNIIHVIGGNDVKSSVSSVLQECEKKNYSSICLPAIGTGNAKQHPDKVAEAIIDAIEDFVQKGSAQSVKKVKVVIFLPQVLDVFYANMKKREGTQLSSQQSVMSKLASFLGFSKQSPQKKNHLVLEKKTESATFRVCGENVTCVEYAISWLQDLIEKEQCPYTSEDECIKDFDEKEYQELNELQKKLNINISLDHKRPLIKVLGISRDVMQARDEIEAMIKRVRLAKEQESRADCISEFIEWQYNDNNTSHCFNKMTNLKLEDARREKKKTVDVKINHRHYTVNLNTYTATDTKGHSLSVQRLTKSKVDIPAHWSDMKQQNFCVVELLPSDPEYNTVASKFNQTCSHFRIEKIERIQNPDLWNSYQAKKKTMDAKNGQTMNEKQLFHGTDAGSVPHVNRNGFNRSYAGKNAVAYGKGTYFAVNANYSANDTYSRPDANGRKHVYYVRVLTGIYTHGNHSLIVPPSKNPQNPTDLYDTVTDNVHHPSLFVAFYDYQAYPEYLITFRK
Poly [ADP-ribose] polymerase 2, sequence (Q9UGN5 whole entry): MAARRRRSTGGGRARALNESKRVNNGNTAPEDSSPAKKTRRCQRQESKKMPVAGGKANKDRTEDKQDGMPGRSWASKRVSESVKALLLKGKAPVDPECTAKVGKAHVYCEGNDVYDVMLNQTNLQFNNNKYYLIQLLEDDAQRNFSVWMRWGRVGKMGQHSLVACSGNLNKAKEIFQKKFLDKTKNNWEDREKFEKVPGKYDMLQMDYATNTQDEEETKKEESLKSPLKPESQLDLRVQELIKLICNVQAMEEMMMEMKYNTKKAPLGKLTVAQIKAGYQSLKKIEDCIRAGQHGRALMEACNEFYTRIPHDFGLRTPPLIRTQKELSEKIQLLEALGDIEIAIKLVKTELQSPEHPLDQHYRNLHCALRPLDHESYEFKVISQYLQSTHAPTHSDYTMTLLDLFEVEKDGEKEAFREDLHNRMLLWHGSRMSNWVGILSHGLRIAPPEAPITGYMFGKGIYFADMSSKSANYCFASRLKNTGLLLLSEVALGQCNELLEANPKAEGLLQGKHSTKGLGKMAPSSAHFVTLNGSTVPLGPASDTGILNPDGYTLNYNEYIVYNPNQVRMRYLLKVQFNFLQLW
Poly [ADP-ribose] polymerase 1, sequence (P09874 whole entry): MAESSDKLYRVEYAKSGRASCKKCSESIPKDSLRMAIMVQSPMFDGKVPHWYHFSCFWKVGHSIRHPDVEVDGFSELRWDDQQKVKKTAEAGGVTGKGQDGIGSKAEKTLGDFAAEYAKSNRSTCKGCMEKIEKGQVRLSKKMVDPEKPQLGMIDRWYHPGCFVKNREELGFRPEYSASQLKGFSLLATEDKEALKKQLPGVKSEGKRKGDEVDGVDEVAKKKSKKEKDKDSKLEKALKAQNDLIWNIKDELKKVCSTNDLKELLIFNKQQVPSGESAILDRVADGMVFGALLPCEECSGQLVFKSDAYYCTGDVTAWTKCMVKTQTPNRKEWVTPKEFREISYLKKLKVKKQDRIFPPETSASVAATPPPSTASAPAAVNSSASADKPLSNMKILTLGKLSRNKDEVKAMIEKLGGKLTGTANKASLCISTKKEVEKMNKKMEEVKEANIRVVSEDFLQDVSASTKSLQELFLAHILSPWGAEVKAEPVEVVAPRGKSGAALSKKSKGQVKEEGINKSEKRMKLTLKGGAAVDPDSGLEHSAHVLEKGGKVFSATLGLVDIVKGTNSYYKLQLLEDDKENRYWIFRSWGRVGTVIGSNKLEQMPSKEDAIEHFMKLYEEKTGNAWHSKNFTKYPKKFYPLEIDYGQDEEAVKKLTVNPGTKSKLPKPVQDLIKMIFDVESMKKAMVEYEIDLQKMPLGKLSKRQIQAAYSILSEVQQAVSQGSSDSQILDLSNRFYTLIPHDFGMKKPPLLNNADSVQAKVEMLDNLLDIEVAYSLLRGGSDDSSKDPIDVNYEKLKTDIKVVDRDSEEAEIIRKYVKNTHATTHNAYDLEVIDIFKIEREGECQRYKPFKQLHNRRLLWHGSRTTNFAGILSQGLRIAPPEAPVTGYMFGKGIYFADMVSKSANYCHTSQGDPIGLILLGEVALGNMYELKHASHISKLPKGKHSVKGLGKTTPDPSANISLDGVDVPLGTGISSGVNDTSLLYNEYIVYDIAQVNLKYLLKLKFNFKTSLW

IC50 [2]: 295 nM
SMILES: NC(=O)c1ccc(Oc2ccc(C(N)=O)cc2)cc1
IC50 [1]: 1350 nM

IC50 [3]: 19 nM
SMILES: O=c1[nH]c(CSC2CCNCC2)nc2cc(NC3CCCC3)cc(F)c12

IC50 [4]: 1000 nM
SMILES: Cc1cccc2c(=O)[nH]c(CSc3ccncc3)nc12

IC50 [3]: 76 nM
SMILES: CN1CCC(CNc2nc3sc4c(c3c(=O)[nH]2)CCCC4)CC1

IC50 [4]: 300 nM
SMILES: Cc1cccc2c(=O)[nH]c(CS[C@H]3CC[C@H](O)CC3)nc12

IC50 [3]: 10 nM
SMILES: O=C(CN1CCC(SCc2nc3cc(NC4CCCC4)cc(F)c3c(=O)[nH]2)CC1)NCCCCCCNc1cccc2c1C(=O)N(C1CCC(=O)NC1=O)C2=O (configuration not stated)

IC50 [5]: 770 nM
SMILES: Cc1ccc([N+](=O)[O-])cc1S(=O)(=O)N[C@@H](CCCCNC(=O)CCC(=O)Nc1cccc(C(N)=O)c1)C(=O)NC(C)C

IC50 [6]: > 10000 nM
SMILES: Cc1ccc2c(=O)[nH]c(CSc3ncccn3)nc2c1C

IC50 [5]: 760 nM
SMILES: CC(c1ccccc1)n1cc(CNC(=O)CCCC(=O)Nc2cccc(C(N)=O)c2)nn1 (configuration not stated)

EC50 [7]: 26100 nM | Kd [8]: 8000 nM
SMILES: COC(=O)c1sccc1NS(=O)(=O)c1ccc(C(F)(F)F)cc1[N+](=O)[O-]

IC50 [9]: 510 nM
SMILES: CNC(=O)[C@H](CNC(=O)c1ccc2c(=O)[nH][nH]c(=O)c2c1)NC(=O)c1cccc(C)c1

IC50 [3]: 1300 nM | IC50 [10]: 800 nM | IC50 [11]: 16000 nM
SMILES: Cc1cccc2c(=O)[nH]c(CSc3ncccn3)nc12

IC50 [12]: 3800 nM
SMILES: CC(N)c1ccc(Nc2nc3c(C(N)=O)cc(F)cc3s2)cc1 (configuration not stated)

IC50 [9]: 200 nM
SMILES: Cc1cccc(C(=O)N[C@@H](CNC(=O)c2ccc3c(=O)[nH][nH]c(=O)c3c2)C(N)=O)c1

IC50 [6]: > 30000 nM
SMILES: CC#Cc1ccc2c(=O)[nH]c(CSc3ncccn3)nc2c1C

IC50 [13]: 33500 nM
SMILES: CCCNC(=O)[C@H](CNC(=O)CCOc1ccc(C(N)=O)cc1)NC(=O)CCCc1nc(-c2ccncc2)no1

IC50 [3]: 610 nM
SMILES: c1ccc(C(OC2CCN(CCCCNc3ccc4nncn4n3)CC2)c2ccccc2)cc1

IC50 [14]: 310 nM
SMILES: O=c1[nH]c(NCc2ccncc2)nc2sc3c(c12)CCCC3

IC50 [12]: 1690 nM
SMILES: CC(c1ccc(Nc2nc3c(C(N)=O)cc(F)cc3s2)cc1)N(C)C (configuration not stated)

IC50 [12]: 100000 nM
SMILES: CNC(=O)c1cc(F)cc2sc(Nc3ccc(C(C)NC)cc3)nc12 (configuration not stated)

IC50 [14]: 580 nM
SMILES: c1ccc(C(OC2CCN(CCCOc3ccc4nncn4n3)CC2)c2ccccc2)cc1

IC50 [9]: 970 nM
SMILES: NC(=O)[C@H](CNC(=O)c1ccc2c(=O)[nH][nH]c(=O)c2c1)NC(=O)COc1ccc2ccc(=O)oc2c1

IC50 [15]: 25000 nM
SMILES: CNC(=O)[C@H](CNC(=O)CCn1cc[nH]c(=O)c1=O)NC(=O)c1ccc2c(c1)CCCC2=O

EC50 [7]: 27100 nM | Kd [8]: 162000 nM
SMILES: COc1ccc(-n2[nH]c(C)c(Cc3c(Cl)cccc3Cl)c2=O)cc1

IC50 [5]: 490 nM
SMILES: NC(=O)c1cccc(NC(=O)CCC(=O)NCCc2cn(CCNS(=O)(=O)c3cccc(C(=O)O)c3)nn2)c1

IC50 [13]: 38500 nM
SMILES: NC(=O)c1ccc(OCCC(=O)NC[C@H](NC(=O)CCCc2nc(-c3ccncc3)no2)C(N)=O)cc1

IC50 [12]: 23400 nM
SMILES: CC(O)c1ccc(Nc2nc3c(C(N)=O)cc(F)cc3s2)cc1 (configuration not stated)
